# Source: PMC10390775, “CETP inhibitor evacetrapib enters mouse brain tissue” (Frontiers in Pharmacology, 2023)
# Where “and” joins values, the source holds several entries; their conditions need not be identical. Equal values may be shown once. Read-outs that look alike come from different tables or passages of the source.
# Assay: Pharmacokinetics of evacetrapib in plasma, liver and brain after a single tail vein injection (UHPLC-MS-qTOF)
# Type: in vivo, hCETPtg mice (C57BL/6J background)
# Conditions: for Brain peak concentration above plasma IC50: IC50 36 nM in human plasma; for k el: read-out: Kβ (elimination rate constant) (converted); for half-life: read-out: t1/2β (half-life) (converted); for Kp: accounting for residual blood, read-out: Tissue penetration ratio (AUC brain / AUC plasma); for MRT: read-out: MRT (mean residence time); for clearance: read-out: CL (drug clearance) (converted); for Vd: read-out: Vss (volume of distribution at steady state)
# Experimental: The experiment was performed in conformity with the OECD Guidelines 417 ([OECD, 2010]). Male hCETPtg mice were chosen for the pharmacokinetic analysis. Mice were fed Teklad Global Diets #2018 from Envigo, Canada, for 8 weeks starting from birth, followed by a diet change of modified low-fat RD Western diet to match TD.08485 with 1% cholesterol from research diets #D16121201 for a duration of 3–4 weeks. Throughout that period, tap water was provided ad libitum. Initially, evacetrapib was solubilized in 20% of the final solution volume of Kolliphor® EL (pH range 6.0–8.0, cat# C5135) by alternating between 5 min intervals using an ultrasonic water bath at 4°C and a hot water bath at 50°C until complete dissolution. Then, 80% of the final volume was added (isotonic glucose solution 50 g/L glucose containing D-(+)-glucose Sigma cat# G7021 in MilliQ water, sterile filtered).
# CETP inhibitor evacetrapib was administered through tail vein injection at doses of 40 mg/kg body weight (BW) or 120 mg/kg BW. Mice weighed 28.42 ± 3.16 g on the day of injection. They were randomly divided into two groups: 24 mice received a dose of 40 mg/kg BW of evacetrapib and the other 24 received a dose of 120 mg/kg BW. Mice from both groups were euthanized at 0, 0.5, 2, 6, 12, and 24 h after injection. Mice euthanized at later time points had continued access to food and water until the end of the experiment. Blood was collected (300–500 µL) at euthanasia for each mouse by cardiac puncture. Blood plasma was extracted using 10 µL of 1 M EDTA pH 8.0 solution in MilliQ water. Brain and liver tissues were collected immediately after euthanasia, rinsed in 0.9% NaCl solution, and snap-frozen in liquid nitrogen. Samples were stored at −80°C until analysis.
# Sample preparation and digestion for evacetrapib analysis were performed using UHPLC-MS-qTOF. Working solutions from a stock of evacetrapib were prepared at concentrations of 10 μmol, 100 nmol, 1 nmol, 500 pmol, and 125 pmol per ml of methanol. Working solutions of anacetrapib used as an internal standard were prepared at concentrations of 10 μmol, 100 nmol, and 1 nmol per ml from a stock solution.
# Brain and liver samples were homogenized using a polytron supplemented with a carbonate buffer at pH 9.8. The volume was adjusted such that each sample reached a final concentration of 100 mg/ml of buffer. A volume of 0.5 ml of homogenate was transferred to a Pyrex tube and enriched with 100 µL of 1 nmol/ml anacetrapib solution used as an internal standard. Then, samples were extracted twice using 4 ml of saturated ethyl acetate. For each extraction, samples were shaken for 30 min using a lateral shaker, followed by a centrifugation round (20 min, 3,000 rpm, 4°C). Organic phases were collected, combined, and then evaporated until dry under a nitrogen stream in a rotating bath at 40°C. The residues were resuspended in methanol. Samples were vortexed until no residues were left. Resuspended residues for both the brain and liver were then centrifuged (20 min, 3,000 rpm, 4°C). The supernatant was recovered, transferred into new vials, and injected into UHPLC-MS-qTOF. For the plasma measurement, 20 µL of plasma was enriched with 100 µL of 1 nmol/ml anacetrapib solution in a microtube. Evacetrapib was extracted using two steps of ethanol wash (200 µL) followed by an incubation time (30 min, 22°C) and centrifugation (5 min, 16,000 g, 10°C). Samples were dried under a gentle nitrogen stream to separate the liquid phase from the solid phase. The residues were subsequently dissolved in methanol, vortexed until no residues were left, and centrifuged (20 min, 3,000 rpm, 4°C). The supernatant was recovered, transferred into new vials, and injected into UHPLC-MS-qTOF.
# Quantification was performed using a seven-point calibration curve with the internal standard correction prepared in the brain, liver, or plasma, respectively. […]
# [1] = liver, 120 mg/kg BW i.v., 120 mg/kg
# [2] = male, hCETPtg (C57BL/6J background), mouse, brain, iv, 40 mg/kg, brain, 40 mg/kg BW i.v.
# [3] = male, hCETPtg (C57BL/6J background), mouse, brain, iv, 120 mg/kg, brain, 120 mg/kg BW i.v.
# [4] = male, hCETPtg (C57BL/6J background), mouse, iv, plasma, 40 mg/kg BW i.v.
# [5] = male, hCETPtg (C57BL/6J background), mouse, iv, plasma, 120 mg/kg BW i.v.
# [6] = male, hCETPtg (C57BL/6J background), mouse, liver, iv, 40 mg/kg, liver, 40 mg/kg BW i.v.
# [7] = male, hCETPtg (C57BL/6J background), mouse, liver, iv, 120 mg/kg, liver, 120 mg/kg BW i.v.
# [8] = male, hCETPtg (C57BL/6J background), mouse, plasma, iv, 40 mg/kg, plasma, 40 mg/kg BW i.v.
# [9] = male, hCETPtg (C57BL/6J background), mouse, plasma, iv, 120 mg/kg, plasma, 120 mg/kg BW i.v.
smiles,measurement,setting,value
Cc1cc(C)c2c(c1)[C@@H](N(Cc1cc(C(F)(F)F)cc(C(F)(F)F)c1)c1nnn(C)n1)CCCN2C[C@H]1CC[C@H](C(=O)O)CC1 [evacetrapib],Peak concentration in the brain after correction for residual blood,40 mg/kg BW i.v.,1.5 µM
same,"Av. conc. in brain, calculated (corrected for residual blood)","40 mg/kg BW i.v., 0 h",0.00 nmol/g
same,"Av. conc. in brain, measured (not corrected for residual blood)","40 mg/kg BW i.v., 0 h",2.05 nmol/g
same,"Av. conc. in brain, calculated (corrected for residual blood)","40 mg/kg BW i.v., 0.5 h",1.5 nmol/g and 1.53 nmol/g
same,"Av. conc. in brain, measured (not corrected for residual blood)","40 mg/kg BW i.v., 0.5 h",2.21 nmol/g
same,"Av. conc. in brain, calculated (corrected for residual blood)","40 mg/kg BW i.v., 2 h",1.0 nmol/g and 1.03 nmol/g
same,"Av. conc. in brain, measured (not corrected for residual blood)","40 mg/kg BW i.v., 2 h",1.41 nmol/g
same,"Av. conc. in brain, calculated (corrected for residual blood)","40 mg/kg BW i.v., 6 h",0.5 nmol/g and 0.50 nmol/g
same,"Av. conc. in brain, measured (not corrected for residual blood)","40 mg/kg BW i.v., 6 h",0.57 nmol/g
same,"Av. conc. in brain, calculated (corrected for residual blood)","40 mg/kg BW i.v., 12 h",0.1 nmol/g and 0.11 nmol/g
same,"Av. conc. in brain, measured (not corrected for residual blood)","40 mg/kg BW i.v., 12 h",0.12 nmol/g
same,"Av. conc. in brain, calculated (corrected for residual blood)","40 mg/kg BW i.v., 24 h",0.00 nmol/g
same,"Av. conc. in brain, measured (not corrected for residual blood)","40 mg/kg BW i.v., 24 h",0.00 nmol/g
same,Brain peak concentration above plasma IC50,40 mg/kg BW i.v.,approximately 40 fold
same,Peak concentration in the brain after correction for residual blood,120 mg/kg BW i.v.,16.7 µM
same,"Av. conc. in brain, calculated (corrected for residual blood)","120 mg/kg BW i.v., 0 h",0 nmol/g and 0.00 nmol/g
same,"Av. conc. in brain, measured (not corrected for residual blood)","120 mg/kg BW i.v., 0 h",22.2 nmol/g
same,"Av. conc. in brain, calculated (corrected for residual blood)","120 mg/kg BW i.v., 0.5 h",16.7 nmol/g
same,"Av. conc. in brain, measured (not corrected for residual blood)","120 mg/kg BW i.v., 0.5 h",25.8 nmol/g
same,"Av. conc. in brain, calculated (corrected for residual blood)","120 mg/kg BW i.v., 2 h",15.3 nmol/g
same,"Av. conc. in brain, measured (not corrected for residual blood)","120 mg/kg BW i.v., 2 h",17.1 nmol/g
same,"Av. conc. in brain, calculated (corrected for residual blood)","120 mg/kg BW i.v., 6 h",5.0 nmol/g and 4.96 nmol/g
same,"Av. conc. in brain, measured (not corrected for residual blood)","120 mg/kg BW i.v., 6 h",5.36 nmol/g
same,"Av. conc. in brain, calculated (corrected for residual blood)","120 mg/kg BW i.v., 12 h",1.0 nmol/g and 1.00 nmol/g
same,"Av. conc. in brain, measured (not corrected for residual blood)","120 mg/kg BW i.v., 12 h",1.11 nmol/g
same,"Av. conc. in brain, calculated (corrected for residual blood)","120 mg/kg BW i.v., 24 h",0.02 nmol/g
same,"Av. conc. in brain, measured (not corrected for residual blood)","120 mg/kg BW i.v., 24 h",0.03 nmol/g
same,Brain peak concentration above plasma IC50,120 mg/kg BW i.v.,~450 fold
same,Increase of tissue penetration ratio from the low to the high dose,120 vs 40 mg/kg BW i.v.,1.63 fold
same,AUMC,"brain, 40 mg/kg BW i.v.",39.2 nmol x h^2/mL
same,AUC,"brain, 40 mg/kg BW i.v., 24 h",10.6 nmol x h/mL
same,AUMC,"brain, 120 mg/kg BW i.v.",395 nmol x h^2/mL
same,AUC,"brain, 120 mg/kg BW i.v., 24 h",115 nmol x h/mL
same,Time of peak plasma values,"first sampling time point, 40 and 120 mg/kg BW i.v.",0 h
same,Entry into brain tissue,"hCETPtg mice, i.v. injection",does enter the mouse brain tissue
same,AUMC,"liver, 40 mg/kg BW i.v.",1183 nmol x h^2/mL
same,AUC,"liver, 40 mg/kg BW i.v., 24 h",267 nmol x h/mL
same,t1/2β (half-life),"liver, 40 mg/kg BW i.v., 40 mg/kg",3.0 h
same,AUMC,"liver, 120 mg/kg BW i.v.",3167 nmol x h^2/mL
same,AUC,"liver, 120 mg/kg BW i.v., 24 h",881 nmol x h/mL
same,Kβ (elimination rate constant),[1],0.2 h⁻¹
same,t1/2β (half-life),[1],3.2 h
same,k el,[2],5.56e-05 s⁻¹
same,half-life,[2],2.8 h
same,k el,[3],8.33e-05 s⁻¹
same,half-life,[3],2.5 h
same,Kp,"male, hCETPtg (C57BL/6J background), mouse, brain, iv, 40 mg/kg BW i.v.",0.08
same,Kp,"male, hCETPtg (C57BL/6J background), mouse, brain, iv, 120 mg/kg BW i.v.",0.13
same,Tmax,"male, hCETPtg (C57BL/6J background), mouse, brain, iv, both doses, 40 and 120 mg/kg BW i.v., read-out: Time of peak concentration in the brain",0.5 h
same,MRT,"male, hCETPtg (C57BL/6J background), mouse, iv, brain, 40 mg/kg BW i.v.",3.7 h
same,MRT,"male, hCETPtg (C57BL/6J background), mouse, iv, brain, 120 mg/kg BW i.v.",3.4 h
same,MRT,"male, hCETPtg (C57BL/6J background), mouse, iv, liver, 40 mg/kg BW i.v.",4.4 h
same,MRT,"male, hCETPtg (C57BL/6J background), mouse, iv, liver, 120 mg/kg BW i.v.",3.6 h
same,clearance,[4],0.157 mL/min
same,MRT,[4],2 h
same,Vd,[4],0.0185 L
same,clearance,[5],0.055 mL/min
same,MRT,[5],1.6 h
same,Vd,[5],0.0053 L
same,k el,[6],5.56e-05 s⁻¹
same,half-life,[6],2.8 h
same,k el,[7],8.33e-05 s⁻¹
same,half-life,[7],2.5 h
same,k el,[8],0.000111 s⁻¹
same,half-life,[8],2.3 h
same,k el,[9],5.56e-05 s⁻¹
same,half-life,[9],3 h
same,AUMC,"plasma, 40 mg/kg BW i.v.",398 nmol x h^2/mL
same,Kα,"plasma, 40 mg/kg BW i.v.",6.5 h⁻¹
same,t1/2α,"plasma, 40 mg/kg BW i.v.",0.1 h
same,AUC,"plasma, 40 mg/kg BW i.v., 24 h",203 nmol x h/mL
same,AUMC,"plasma, 120 mg/kg BW i.v.",2297 nmol x h^2/mL
same,Kα,"plasma, 120 mg/kg BW i.v.",1.8 h⁻¹
same,t1/2α,"plasma, 120 mg/kg BW i.v.",0.4 h
same,AUC,"plasma, 120 mg/kg BW i.v., 24 h",1418 nmol x h/mL
